Key:
NDM-1 [1] = biological target: T1, NDM-1 (Klebsiella pneumoniae, UniProt C7C422); conditions: metallo-β-lactamase NDM-1; cited from earlier work
NDM-1 [2] = biological target: T1, NDM-1; conditions: cited from earlier work
[3] = system: Enterobacter cloacae strain harbouring IMI-2 gene; assay: Antibiotic susceptibility (MIC) of the IMI-2 positive clinical strain; type: cell-based; set-up: MIC: unit not given beside the values; conditions: for resistance of the strain: IMI-2 positive Enterobacter cloacae strain

T1 sequence (C7C422 29-270 limits assumed): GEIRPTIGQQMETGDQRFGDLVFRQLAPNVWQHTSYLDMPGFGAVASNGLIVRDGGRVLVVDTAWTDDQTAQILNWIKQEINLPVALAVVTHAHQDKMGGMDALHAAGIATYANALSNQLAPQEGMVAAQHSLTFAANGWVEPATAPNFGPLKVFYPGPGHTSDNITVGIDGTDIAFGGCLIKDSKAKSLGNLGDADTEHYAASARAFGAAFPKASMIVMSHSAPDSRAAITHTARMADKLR

| Compound | binding to NDM-1 compared to VIM-2 (NDM-1 [2]) | resistance of the strain [3] | also measured |
| --- | --- | --- | --- |
| C[C@H]1[C@H](NC(=O)/C(=N\OC(C)(C)C(=O)O)c2csc(N)n2)C(=O)N1S(=O)(=O)O [aztreonam] | – | – | hydrolysis by NDM-1 (NDM-1 [1]): can hydrolyze all β-lactams except aztreonam |
| CO/N=C(\C(=O)N[C@@H]1C(=O)N2C(C(=O)O)=C(COC(C)=O)CS[C@H]12)c1csc(N)n1 [cefotaxime] | tighter binding | – | – |
| CO/N=C(\C(=O)N[C@@H]1C(=O)N2C(C(=O)O)=C(COC(N)=O)CS[C@H]12)c1ccco1 [cefuroxime] | tighter binding | – | – |
| CC(=O)OCC1=C(C(=O)O)N2C(=O)[C@@H](NC(=O)Cc3cccs3)[C@H]2SC1 [cephalothin] | tighter binding | – | – |
| C[C@@H](O)[C@H]1C(=O)N2C(C(=O)O)=C(S[C@@H]3CN[C@H](C(=O)Nc4cccc(C(=O)O)c4)C3)[C@H](C)[C@H]12 [ertapenem] | – | highly resistant | MIC ([3]; IMI-2 positive Enterobacter cloacae strain isolated from a patient in intensive care unit): > 256 |
| C[C@@H](O)[C@H]1C(=O)N2C(C(=O)O)=C(S[C@@H]3CN[C@H](C(=O)N(C)C)C3)[C@H](C)[C@H]12 [meropenem] | – | highly resistant | – |
| trimetoprim/sulfa | – | not, however, resistant | – |
